This note sets out measurements from patent US11395847B2, “Acylated GLP-1/GLP-2 dual agonists” (Zealand Pharma A/S, priority 2016, dated 2022).

Where a SMILES comes first, the peptide text is derived from it.

The term EC50 denotes the midpoint of the concentration-response curve.

A short description of data set [1]: Chemical stability (RP-HPLC normalized purity after incubation at 40° C.). The note with it: 14-day incubation, 0.2 mg/ml, normalized purity (area-%); for pH 7 normalized stability: pH 7, 40° C. Type of data set: physicochemical. A digest of the protocol:
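Peptide at 0.2 mg/ml final in water adjusted to pH 6, 7, 7.5 or 9, incubated at 40° C for 14 days. Purity measured as main-peak area-% by C18 RP-HPLC (acetonitrile/TFA/water gradient, UV 220 nm) and normalized to T=0 set at 100 for each pH.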

For a further data set, the target named is T1, human GLP-1 receptor (Homo sapiens, UniProt P43220).
T1 construct: expressed in transfected cells
The experiment in a line: GLP-1 receptor potency assay (cAMP ALPHASCREEN, HEK293 cells stably expressing GLP-1 R). The note with it: cAMP response, HEK293 cells expressing human GLP-1 R. It is filed as cell-based. From the text: One useful in vitro assay for measuring GLP-1 and GLP-2 receptor activity is quantitation of cAMP, i.e. 3′-5′-cyclic adenosine monophosphate, which is a second messenger essential in many biological processes, and one of the most ubiquitous mechanisms for regulating cellular functions.
The cDNA encoding the human glucagon-like peptide 1 receptor (GLP-1 R) (primary accession number P43220) was cloned from the cDNA BC112126 (MGC:138331/IMAGE:8327594). The DNA encoding the GLP-1-R was amplified by PCR using primers encoding terminal restriction sites for subcloning. The 5′-end primers additionally encoded a near Kozak consensus sequence to ensure efficient translation. […] The PCR products encoding the GLP-1-R were subcloned into a mammalian expression vector containing a neomycin (G418) resistance marker. The mammalian expression vectors encoding the GLP-1-R were transfected into HEK293 cells by a standard calcium phosphate transfection method. 48 hours post-transfection, cells were seeded for limited dilution cloning and selected with 1 mg/ml G418 in the culture medium. Following 3 weeks in G418 selection clones were picked and tested in a functional GLP-1 receptor potency assay as described below.
The cAMP ALPHASCREEN® assay from Perkin Elmer was used to quantitate the cAMP response to activation of the GLP1 and GLP2 receptor, respectively. […] Data from test compounds eliciting an increase in the intracellular level of cAMP were normalized relative to the positive and negative control (vehicle) to calculate the EC50 and maximal response from the concentration response curve.

T1 sequence (P43220 24-463): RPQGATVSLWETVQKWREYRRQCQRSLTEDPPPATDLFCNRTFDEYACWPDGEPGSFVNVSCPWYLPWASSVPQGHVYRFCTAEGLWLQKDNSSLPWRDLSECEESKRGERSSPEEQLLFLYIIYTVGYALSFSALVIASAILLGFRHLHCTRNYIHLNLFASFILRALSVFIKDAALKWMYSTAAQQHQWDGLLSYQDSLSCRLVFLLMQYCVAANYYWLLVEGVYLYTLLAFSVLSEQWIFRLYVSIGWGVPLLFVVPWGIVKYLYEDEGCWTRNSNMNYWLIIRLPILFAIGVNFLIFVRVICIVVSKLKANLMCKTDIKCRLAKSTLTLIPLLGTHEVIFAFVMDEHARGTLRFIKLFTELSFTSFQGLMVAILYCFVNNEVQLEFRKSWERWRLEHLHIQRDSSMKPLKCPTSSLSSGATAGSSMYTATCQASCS

In the case of `CC[C@H](C)[C@H](NC(=O)[C@H](Cc1ccccc1)NC(=O)[C@H](CC(=O)O)NC(=O)[C@H](CCCNC(=N)N)NC(=O)[C@H](C)NC(=O)[C@H](C)NC(=O)[C@H](CCC(=O)O)NC(=O)[C@H](CCCCNC(=O)CC[C@H](NC(=O)CCCCCCCCCCCCCCCCC(=O)O)C(=O)O)NC(=O)[C@H](CC(=O)O)NC(=O)[C@H](CC(C)C)NC(=O)[C@@H](NC(=O)[C@@H](NC(=O)[C@H](C)NC(=O)[C@H](CC(C)C)NC(=O)[C@H](CCC(=O)O)NC(=O)[C@H](CO)NC(=O)[C@@H](NC(=O)[C@H](Cc1ccccc1)NC(=O)[C@H](CO)NC(=O)CNC(=O)[C@H](CCC(=O)O)NC(=O)C(C)(C)NC(=O)[C@@H](N)Cc1c[nH]cn1)[C@@H](C)O)[C@@H](C)O)[C@@H](C)CC)C(=O)N[C@@H](C)C(=O)N[C@@H](Cc1c[nH]c2ccccc12)C(=O)N[C@@H](CC(C)C)C(=O)N[C@H](C(=O)N[C@@H](CCC(=O)O)C(=O)N[C@@H](Cc1c[nH]cn1)C(=O)N[C@@H](CCCCN)C(=O)N[C@H](C(=O)N[C@H](C(=O)N[C@@H](CC(=O)O)C(=O)O)[C@@H](C)O)[C@@H](C)CC)[C@@H](C)CC` [Compound 2] (HELM PEPTIDE1{H.[Aib].E.G.S.F.T.S.E.L.A.T.I.L.D.K.E.A.A.R.D.F.I.A.W.L.I.E.H.K.I.T.D}|PEPTIDE2{[O=C(O)CCCCCCCCCCCCCCCCC(=O)[*:2]].[gGlu]}$PEPTIDE1,PEPTIDE2,16:R3-2:R2$$$V2.0), in data set [1] (pH 6, 40° C.), the “pH 6 normalized stability” value is given as “A (>90% normalised stability)”. In data set [1], the “pH 7 normalized stability” value is “A (>90% normalised stability)”. Moreover, a half-maximal effect at human GLP-1 receptor (EC50) was put at 130 pM.
Consider `CC[C@H](C)[C@H](NC(=O)[C@H](Cc1ccccc1)NC(=O)[C@H](CC(=O)O)NC(=O)[C@H](CCCNC(=N)N)NC(=O)[C@H](C)NC(=O)[C@H](C)NC(=O)[C@H](CC(C)C)NC(=O)[C@H](CCCCNC(=O)CC[C@H](NC(=O)CCCCCCCCCCCCCCCCC(=O)O)C(=O)O)NC(=O)[C@H](CC(=O)O)NC(=O)[C@H](CC(C)C)NC(=O)[C@@H](NC(=O)[C@@H](NC(=O)[C@H](C)NC(=O)[C@H](CC(C)C)NC(=O)[C@H](CCC(=O)O)NC(=O)[C@H](CO)NC(=O)[C@@H](NC(=O)[C@H](Cc1ccccc1)NC(=O)[C@H](CO)NC(=O)CNC(=O)[C@H](CCC(=O)O)NC(=O)C(C)(C)NC(=O)[C@@H](N)Cc1c[nH]cn1)[C@@H](C)O)[C@@H](C)O)[C@@H](C)CC)C(=O)N[C@@H](C)C(=O)N[C@@H](Cc1c[nH]c2ccccc12)C(=O)N[C@@H](CC(C)C)C(=O)N[C@H](C(=O)N[C@@H](CCC(=O)O)C(=O)N[C@@H](Cc1c[nH]cn1)C(=O)N[C@@H](CCCCN)C(=O)N[C@H](C(=O)N[C@H](C(=O)N[C@@H](CC(=O)O)C(=O)O)[C@@H](C)O)[C@@H](C)CC)[C@@H](C)CC` [Compound 11] (HELM PEPTIDE1{H.[Aib].E.G.S.F.T.S.E.L.A.T.I.L.D.K.L.A.A.R.D.F.I.A.W.L.I.E.H.K.I.T.D}|PEPTIDE2{[O=C(O)CCCCCCCCCCCCCCCCC(=O)[*:2]].[gGlu]}$PEPTIDE1,PEPTIDE2,16:R3-2:R2$$$V2.0), for which the “pH 7 normalized stability” value in data set [1] was “A (>90% normalised stability)”. The same compound came in with an EC50 on human GLP-1 receptor of 320 pM.
